In the experiment the test system is Kv2.1 channel. Put plainly: whole-cell patch clamp in CHO-Kv2.[…] cells. Format: cell-based. In general terms: The patch-clamp technique gives a direct electrical read-out from membranes.

As usually defined, the IC50 is the concentration that inhibits the measured activity by half.

`CCN(CC)CCOC(=O)C(c1ccccc1)C1CCCCC1` (stereo not shown) [Dfe, drofenine] came in with an IC50 of 9.53 µM.

Source of the values: publication PMC7559245 (iScience, 2020).
